The record followed here is patent US20080015138A1, “Metal binding compounds, metal binding compositions, and their uses” (AFFINERGY, INC., priority 2006, published 2008).

Square brackets hold non-standard residues; d marks the D form. Ends that are not written are not given here.

Test [1] is described as follows: Peptide binding assay on titanium beads (streptavidin-AP detection, binding curve EC50). The protocol: (§1) Relative binding strengths (affinities) of the peptides to metal, also used as a measure of binding specificity, were determined by testing serial dilutions of the peptide for binding to a target substrate comprising metal, as represented by titanium or steel. Plotting the absorbance observed across the concentration range for each peptide sequence yielded a binding curve of the peptides to its target substrate from which can be determined an EC50 (e.g., the concentration of peptide that gives 50% of the maximum signal in the binding curve is used as an estimate of the affinity of the peptide for the target). Preferred are peptides that bind to the selected target substrate (in this case, metal) with binding specificity, preferably with an EC50 of less than or equal to about 1 μM, and more preferably, in the nanomolar range (e.g., <0.1 μM). […] A typical binding assay for titanium (note, a different substrate may be substituted for titanium in the assay) may be perofrmed according to the following procedure.
(§2) Briefly, 5/32-inch diameter Grade 200 titanium beads were washed by sonication in acetone for 15 minutes, and the beads were allowed to dry. One bead was added to each well of a 96-well polypropylene plate. Two hundred fifty (250) μL of 1% BSA in PBS was added to each well of the plate. The surface of the wells was blocked by incubation for 1 hour at 20° C. with shaking at 500 rpm. The plate was washed three times with 250 μL of buffer-T per well. A 1:3 dilution series of each of the peptides was prepared using PBS as a diluent, starting at a peptide concentration of 20 μM, and going down to 0.0001 μM. A 200 μL sample of each dilution was added to wells of the plate. The plate was incubated for 1 hour at 20° C. with shaking at 500 rpm. The beads were washed three times with 250 μL of buffer-T per well. Two hundred (200) μL of streptavidin-alkaline phosphatase (“streptavidin AP”) reagent, at a dilution of 1:2000 in buffer+1% BSA, was added to each well. The plate was incubated for 30 minutes at room temperature. The beads were washed three times with 250 μL of buffer-T per well. Two hundred (200) μL of color development reagent (PNPP, p-nitrophenol phosphate) was added to each well. After color had developed (10 minutes), the samples were transferred to a clear 96-well plate and the absorbance at 405 nm determined. A binding curve was generated by plotting the absorbance at 405 nm against the peptide concentration (μM).

Test [2] is described as follows: Peptide binding assay on zirconium metal alloy. The following applies: Table 6. On the procedure:
as §1, §2
(§3) In this embodiment, illustrated are additional characterizations of the binding specificities of examples of metal binding domains, and peptides containing the metal binding domains, according to the present invention to various substrates, such as metal (as illustrated by stainless steel, zirconium metal alloy […]) versus binding to a polymer (as illustrated by polystyrene). Using the methods illustrated in Example 2, binding specificities for the various substrates were determined; with the results illustrated in Table 6 (Note: “none” means any binding detected was very low, and not above background binding (such as by a control peptide with no binding specificity for metal) in the binding assay; and thus, a binding curve for calculation of an EC50 could not be generated).

Test [3] is described as follows: Peptide binding assay on polymer (polystyrene). The settings on record: Table 6, polymer illustrated by polystyrene. On the procedure:
as §1, §2, §3

Test [4] is described as follows: Peptide binding assay on stainless steel. The settings on record: for binding to stainless steel (in words): biotinylated peptides. On the procedure: as §1, §2, §3
The nature of test [5]: Peptide binding assay on glass. The following applies: Table 6. The protocol: as §1, §2, §3
Setting [6] is: Table 4, second-generation peptides, biotinylated at C-terminal lysine, binding to titanium, read-out: EC50.
[7] abbreviates: Table 6, read-out: EC50 (μM) stainless steel.
Setting [8] is: Table 5, spacing between triplets, biotinylated peptides, binding to titanium, read-out: EC50.
The mark [9] stands for this setting: Table 3, substituted peptides labeled with biotin, binding to titanium, read-out: EC50.

Turning to “SHHKGGHHKGSSGK- (not fully specified; printed as SHHKGGHHKGSSGK-; also: name ends with '-': unspecified C-terminal conjugate) [SEQ ID NO: 78]”, in test [1] (setting [6]), the concentration for a half-maximal effect (EC50) (usually the midpoint of the concentration-response curve) is 500 nM.

Take SKHKGGKHKGGKHKGSSGK [SEQ ID NO: 79]: the concentration for a half-maximal effect (EC50) is 25 nM in test [1] (setting [6]); 25 nM in test [1] (Table 7, peptide monomer versus branched polymers, binding to titanium, read-out: EC50); less than 0.05 µM in test [2]; greater than 20 µM in test [3]; less than 0.05 µM in test [4] (setting [7]); less than 0.05 µM in test [5].

Take SKHKGGKHKGSSGK [SEQ ID NO: 71]: the 50% effective concentration (EC50) in test [1] (setting [6]) is 26 nM; in test [1] (setting [8]), 26 nM; in test [2], less than 0.1 µM; in test [3] it was greater than 20 µM; in test [4] (setting [7]), less than 0.5 µM; in test [5], less than 0.5 µM.

In the case of SHKHPVTPRFFVVGSK [SEQ ID NO: 68], in test [1] (setting [9]), the EC50 is 600 nM.

For the substance SHKHPVTPRFFVVKSK [SEQ ID NO: 66], the EC50 in test [1] (setting [9]) was 50 nM.

Turning to SHKHPVTPRFFVVNSK [SEQ ID NO: 69], the EC50 in test [1] (setting [9]) was 800 nM.

Regarding SHKHPVTPRGGGGESK [SEQ ID NO: 62], the concentration for a half-maximal effect (EC50) in test [1] (setting [9]) was 3000 nM.

Turning to SHKHPVTPRFFVVYSK [SEQ ID NO: 65], in test [1] (setting [9]), the EC50 was found to be 50 nM.

As for SHKHGGHKHGGHKHGSSGK [SEQ ID NO: 72], the EC50 was 35 nM in test [1] (setting [6]), less than 0.1 µM in test [2], less than 0.1 µM in test [4] (setting [7]) and less than 0.05 µM in test [5]. The “EC50 (μM) Polymer” value in test [3] is on record as “None”.

As for SKHKGKHKGSSGK [SEQ ID NO: 82], in test [1] (setting [8]), the half-maximal effective concentration (EC50) stood at 60 nM.

As to SGGGPVTPRFFVVESK [SEQ ID NO: 64], the EC50 in test [1] (setting [9]) was greater than 100000 nM.

As for SHKHGGKHKGSSGK [SEQ ID NO: 74], the concentration giving a half-maximal response (EC50) in test [1] (setting [6]) was 60 nM; in test [2], less than 0.1 µM; in test [3] it was greater than 20 µM; in test [4] (setting [7]), less than 0.5 µM; in test [5] it was less than 0.5 µM.

Turning to SKHKGGGGKHKGSSGK [SEQ ID NO: 75], the EC50 in test [1] (setting [6]) was 110 nM; in test [2], less than 0.1 µM; in test [3] it was greater than 20 µM; in test [4] (setting [7]), less than 0.5 µM; in test [5] it was less than 0.1 µM.

For the substance SKHKGGGKHKGSSGK [SEQ ID NO: 83], the EC50 in test [1] (setting [8]) worked out at 75 nM.

For SHKHPVTPGFFVVESK [SEQ ID NO: 63], in test [1] (setting [9]), the half-maximal effective concentration (EC50) was greater than 50000 nM.

Turning to “SHKHPVTPRFFVVESK [SEQ ID NO: 59, Parent]”, in test [1] (setting [9]), the half-maximal effective concentration (EC50) was 4000 nM.

In the case of SHGHGGHGHGSSGK [SEQ ID NO: 80], in test [1] (setting [6]), the half-maximal effective concentration (EC50) came to 4000 nM. For the same substance, in test [1] (biotinylated peptides), the “binding to titanium (in words)” value was “comparably poorer binding affinity”.

Take SKHKKHKGSSGK [SEQ ID NO: 81]: the concentration giving a half-maximal response (EC50) in test [1] (setting [8]) stood at 60 nM.

Turning to SKKHGGKKHGSSGK [SEQ ID NO: 70], the concentration giving a half-maximal response (EC50) in test [1] (setting [6]) is 13 nM; in test [2] it was less than 0.1 µM; in test [3], greater than 20 µM; in test [4] (setting [7]), less than 0.1 µM; in test [5], less than 0.1 µM.

Take “ssCNCYVTPNLLKHKCYKICsr ([code s][code s]CNCYVTPNLLKHKCYKIC[code s][code r]; not fully specified; printed as ssCNCYVTPNLLKHKCYKICsr; cysteine pairing not given here) [SEQ ID NO: 47]”: the “binding to titanium (in words)” value in test [1] (biotinylated peptides, listed as 47) is recorded as “showed binding”; in test [1] (biotinylated peptides, listed as SEQ ID NO:47), “strongest binding”. Besides, the concentration for a half-maximal effect (EC50) in test [1] (biotinylated phage-derived peptide, text of Example 2, read-out: EC50 on titanium) is roughly 800 nM; in test [4] (biotinylated phage-derived peptide, text of Example 2, read-out: EC50 on stainless steel) it was roughly 1 µM. For the same substance, the “binding to stainless steel (in words)” value in test [4] (listed as 47) is “showed binding”; in test [4] (listed as SEQ ID NO:47) it was “strongest binding”.

As for SHKHPVTPRFFVVVSK [SEQ ID NO: 67], the EC50 in test [1] (setting [9]) came to 200 nM.

On to SKHKGGHKHGSSGK [SEQ ID NO: 73], for which the concentration giving a half-maximal response (EC50) in test [1] (setting [6]) was 45 nM; in test [2], less than 0.5 µM; in test [3] it was greater than 20 µM; in test [4] (setting [7]) it was less than 0.5 µM; in test [5], less than 0.5 µM.

As for SKHKGGGGGKHKGSSGK [SEQ ID NO: 84], in test [1] (setting [8]), the half-maximal effective concentration (EC50) came to 70 nM.

Take SHKHGGGGHKHGSSGK [SEQ ID NO: 76]: the concentration for a half-maximal effect (EC50) in test [1] (setting [6]) was 150 nM.

Regarding “ssCDQNDIFYTSKKSHKSHCsr ([code s][code s]CDQNDIFYTSKKSHKSHC[code s][code r]; not fully specified; printed as ssCDQNDIFYTSKKSHKSHCsr; cysteine pairing not given here) [SEQ ID NO: 49]”, the “binding to titanium (in words)” value in test [1] (biotinylated peptides) is “showed binding”. Further, the “binding to stainless steel (in words)” value in test [4] is reported as “showed binding”.

Consider SHKHGGGGRFFVVESK [SEQ ID NO: 61], for which, in test [1] (setting [9]), the 50% effective concentration (EC50) amounted to 3000 nM.

For “ssSDKCHKHWYCYESKYGGSsr ([code s][code s]SDKCHKHWYCYESKYGGS[code s][code r]; cysteine pairing not given here; also: biotinylated (site not given here)) [SEQ ID NO: 51]”, the “binding to titanium (in words)” value in test [1] (biotinylated peptides) was “showed binding”. Moreover, in test [4], the “binding to stainless steel (in words)” value was “showed binding”.

For SHKHPVTPRGGVVESK [SEQ ID NO: 60], in test [1] (setting [9]), the EC50 came out at 2000 nM.

Turning to “ssCSHNHHKLTAKHQVAHKCsr ([code s][code s]CSHNHHKLTAKHQVAHKC[code s][code r]; not fully specified; printed as ssCSHNHHKLTAKHQVAHKCsr; cysteine pairing not given here) [SEQ ID NO: 48]”, the “binding to titanium (in words)” value in test [1] (biotinylated peptides) is recorded as “showed binding”. Also, the “binding to stainless steel (in words)” value in test [4] was “showed binding”.

As for SHKHGGHKHGSSGK [SEQ ID NO: 77], the half-maximal effective concentration (EC50) in test [1] (setting [6]) is 200 nM; in test [2], less than 1 µM; in test [3], greater than 20 µM; in test [4] (setting [7]) it was less than 1 µM; in test [5] it was less than 1 µM.
